Laboratory results as given in ChEMBL document CHEMBL6153109, “Switching Roles─Exploring Concentration-Dependent Agonistic versus Antagonistic Behavior of Integrin Ligands” (J Med Chem, 2025).
Calls of active or inactive are those of the source. No cut-off for these calls is given here.

What was measured:
[1] = target: T1, Integrin alpha-5/beta-1 (Homo sapiens, UniProt P05556+P08648); experiment: Agonist activity at integrin alpha5beta1 in human OV-MZ-6 cells assessed as increase in FAK expression at 1 to 1000 nM measured after 5 to 60 mins by Western blot analysis; assay type: cell-based; details: dose 1-1000 nM, time 5-60 min
[2] = target: T1, Integrin alpha-5/beta-1; experiment: Agonist activity at integrin alpha5beta1 in human OV-MZ-6 cells assessed as fold increase in p-ERK1/2 expression at 1 uM incubated for 24 hrs by Western blot analysis; assay type: cell-based; details: filed as agonist
[3] = system: M21; experiment: Inhibition of cell adhesion in human M21 cells expressing integrin alphaVbeta3 at 1 uM measured after 48 hrs by microscopic imaging analysis; assay type: functional, cell-based
[4] = system: M21; experiment: Inhibition of cell adhesion in human M21 cells expressing integrin alphaVbeta3 at 1 nM measured after 48 hrs by microscopic imaging analysis; assay type: functional, cell-based
[5] = system: M21; experiment: Inhibition of cell migration in human M21 cells expressing integrin alphaVbeta3 assessed as delay in wound gap closure at 1 nM measured after 9 to 72 hrs by wound scratch assay; assay type: functional, cell-based; details: time 9-72 hrs
[6] = target: T1, Integrin alpha-5/beta-1; experiment: Agonist activity at integrin alpha5beta1 in human OV-MZ-6 cells assessed as increase in p-FAK expression at 1 nM measured after 30 to 60 mins by Western blot analysis; assay type: cell-based; details: time 30-60 min
[7] = Inhibition of cell migration in human OV-MZ-6 cells expressing integrin alpha5beta1 assessed as cell coverage at 1 uM measured within 72 hrs by wound scratch assay relative to control; assay type: functional; set-up: scale not given: the % may be the effect or the level left
[8] = system: M21; experiment: Inhibition of cell migration in human M21 cells expressing integrin alphaVbeta3 assessed as cell coverage at 1 uM measured within 72 hrs by wound scratch assay (reference value: 95 %); assay type: functional; set-up: scale not given: the % may be the effect or the level left
[9] = system: OV-MZ-6; experiment: Inhibition of cell migration in human OV-MZ-6 cells expressing integrin alpha5beta1 assessed as delay in wound gap closure at 1 to 1000 nM measured after 24 to 72 hrs by wound scratch assay relative to control; assay type: functional, cell-based; details: dose 1-1000 nM, time 24-72 hrs
[10] = system: M21; experiment: Inhibition of cell migration in human M21 cells expressing integrin alphaVbeta3 assessed as delay in wound gap closure at 1 uM measured after 72 hrs by wound scratch assay; assay type: functional, cell-based

Which results are given for `CC(C)[C@H]1C(=O)N[C@@H](CCCNC(=N)N)C(=O)NCC(=O)N[C@@H](CC(=O)O)C(=O)N[C@H](Cc2ccccc2)C(=O)N1C` [CILENGITIDE]?
Activity [1]: inactive; fold change (FC) [2]: 3.1; inhibition [3]: Active; inhibition [4]: inactive; inhibition [5]: inactive; Activity [6]: inactive; Activity [7]: 60%; Activity [8]: 40%; inhibition [9]: inactive; inhibition [10]: Active
